The text below walks through data of US8497228B2, “Active substance combinations with insecticidal and acaricidal properties” (Bayer Cropscience AG, priority 2007, dated 2013).

The test system of assay [1] is green peach aphid (Myzus persicae). Briefly: Myzus persicae test (Example A1, cabbage leaves sprayed). The assay is classed as in vivo. The conditions noted are these: spray.
Assay [2] deals with army worm larvae (Spodoptera frugiperda). Kind of assay: Spodoptera frugiperda larvae test (Example C, cabbage leaves sprayed). The assay is classed as in vivo. The following applies: spray.
In assay [3] the test system is mustard beetle larvae (Phaedon cochleariae). Briefly: Phaedon cochleariae larvae test (Example B, cabbage leaves sprayed). The following applies: 100 g/ha, spray.
Assay [4] concerns green peach aphid (Myzus persicae). Kind of assay: Myzus persicae test (Example A2, cabbage leaves dipped). The format is in vivo. The conditions noted are these: dipping. The protocol:
Cabbage leaves (Brassica oleracea) which are severely infested with the green peach aphid (Myzus persicae) are treated by dipping into the active substance preparation of the desired concentration.

Molecules are shown by their SMILES.

On to `O=C1C=C(N(CCF)Cc2ccc(Cl)nc2)CO1` [Compound I-4, 4-{[(6-chloropyrid-3-yl)methyl](2-fluoroethyl)amino}furan-2(5H)-one], for which the “Destruction in % after 1 day” value in assay [1] (4 g/ha) was determined as 30%. Also, in assay [2] (4 g/ha), the “Destruction in % after 6 days” value is reported as 0%. The “Destruction in % after 2 days” value in assay [3] is on record as 0%.
For the compound `O=C1C=C(N(Cc2ccc(Cl)nc2)CC(F)F)CO1` [Compound I-5, 4-{[(6-chloropyrid-3-yl)methyl](2,2-difluoroethyl)amino}furan-2(5H)-one], the “Destruction in % after 6 days” value in assay [2] (0.8 g/ha) turned out to be 0%.
`CN(Cc1cnc(Cl)c(F)c1)C1=CC(=O)OC1` [Compound I-6, 4-{[(6-chloro-5-fluoropyrid-3-yl)methyl](methyl)amino}furan-2(5H)-one]: the “Destruction in % after 1 day” value in assay [1] (0.16 g/ha) stood at 30%. The “Destruction in % after 6 days” value in assay [2] (4 g/ha) was found to be 0%. The “Destruction in % after 2 days” value in assay [3] worked out at 0%.
As to `CN(Cc1ccc(Cl)nc1)C1=CC(=O)OC1` [Compound I-10, 4-{[(6-chloropyrid-3-yl)methyl](methyl)amino}furan-2(5H)-one], the “Destruction in % after 1 day” value in assay [4] (0.8 ppm) turned out to be 45%.
`Cc1cc(C(F)(C(F)(F)F)C(F)(F)F)ccc1NC(=O)c1cccc(Cl)c1C(=O)N[C@@H](C)CS(C)(=O)=O` [Compound IIb, (S)-3-chloro-N^1-{2-methyl-4-[1,2,2,2-tetrafluoro-1-(trifluoromethyl)ethyl]phenyl}-N^2-(1-methyl-2-methylsulphonylethyl)phthalamide]: the “Destruction in % after 1 day” value in assay [1] (0.8 g/ha) is given as 0%; in assay [4] (100 ppm), 10%. The figures for the “Destruction in % after 6 days” value in assay [2] (0.16 g/ha) and in assay [2] (0.8 g/ha) were 0% and 67%, respectively.
Regarding `Cc1cc(C(F)(C(F)(F)F)C(F)(F)F)ccc1NC(=O)c1cccc(I)c1C(=O)NC(C)(C)CS(C)(=O)=O` [Flubendiamide, flubendiamide, reference compound], in assay [1] (0.16 g/ha), the “Destruction in % after 1 day” value is listed as 0%. Further, the “Destruction in % after 6 days” value in assay [2] (0.8 g/ha) amounted to 33%; in assay [2] (4 g/ha) it was 67%. In assay [3], the “Destruction in % after 2 days” value was determined as 17%.
